Test results reported in patent US9765039B2, “Biaryl derivatives as bromodomain inhibitors” (Zenith Epigenetics Ltd., priority 2012, dated 2017).

Columns and labels:
Brd4 bromodomain 1 = molecular target: T1, Brd4 bromodomain 1 (Homo sapiens, UniProt O60885); experiment: Inhibition of tetra-acetylated histone H4 binding to BET bromodomains (TR-FRET); set-up: key: Active: Compounds with an IC50 value less than 30 μM were deemed to be active.; Not Active: Compounds with an IC50 value less than 30 μM were deemed to be active; conditions: first bromodomain of Brd4, tetra-acetylated histone H4 peptide
T1 construct: made in house; host or cells: E. coli BL21(DE3)
Procedure, shortened: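 TR-FRET with N-terminally His-tagged bromodomains (200 nM, E. coli-expressed, Ni affinity and SEC-purified) and biotinylated tetra-acetylated histone H4 peptide (25–50 nM), detected with Eu-cryptate streptavidin and XL665 anti-His antibody. Buffer 30 mM HEPES pH 7.4, 320 mM KF, 0.08% BSA, 0.2% DMSO; 2 h RT. IC50 from decrease in 665/620 nm ratio.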

c-myc = experiment: Inhibition of c-myc expression in cancer cell lines (mRNA, real-time PCR); format: cell-based; set-up: key: Active: Compounds with an IC50 value less than 30 μM were deemed to be active; conditions: Human AML MV4-11 cells, 3 hours
Procedure, shortened: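 MV4-11 cells (2.5×10^4) exposed to compound or 0.1% DMSO for 3 h at 37° C, then lysed for mRNA isolation. c-myc and cyclophilin cDNAs co-amplified by duplex RT real-time PCR. IC50 from dose-response curve.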

Human AML MV-4-11 cells = experiment: Inhibition of cell proliferation in cancer cell lines (CellTiter Aqueous One); format: cell-based; set-up: key: Active: Compounds with an IC50 value less than 30 μM were deemed to be active.; Not Active: Compounds with an IC50 value less than 30 μM were deemed to be active; conditions: 72 hours
Procedure, shortened: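 Exponentially growing MV-4-11 cells were treated immediately with two-fold compound dilutions from 30 µM to 0.2 µM in triplicate for 72 h at 37 °C. Viability was read by MTS (CellTiter Aqueous One) absorbance at 490 nm after 3-4 h; % proliferation vs DMSO gave IC50.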

hIL-6 mRNA = experiment: Inhibition of hIL-6 mRNA transcription in LPS-stimulated U937 macrophages; format: cell-based, human; set-up: key: Active: Compounds with an IC50 value less than 30 μM are deemed to be active; conditions: U937 differentiated into macrophages, 1 h pretreatment, lipopolysaccharide 3 h
Procedure, shortened: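 U937 cells differentiated 3 days with 60 ng/mL PMA, pretreated 1 h with compound, then stimulated with […] E. coli LPS for 3 h at 37° C. hIL-6 mRNA quantified by one-step real-time RT-PCR, Ct normalised to internal control and expressed as fold induction relative to control.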

hApoA-1 mRNA = experiment: Up-regulation of hApoA-1 mRNA transcription in Huh7 cells; format: cell-based, human; set-up: key: Active: Compounds with an EC170 value less than 30 μM are deemed to be active.; Not Active: Compounds with an EC170 value less than 30 μM are deemed to be active; conditions: 48 hrs treatment, ApoA-I mRNA
Description: In this example, ApoA-I mRNA in tissue culture cells was quantitated to measure the transcriptional up-regulation of ApoA-I when treated with a compound of the present disclosure.
Huh7 cells ([…] per well) were plated in a 96-well plate using 100 μL DMEM per well, (Gibco DMEM supplemented with penicillin/streptomycin and 10% FBS), 24 h before the addition of the compound of interest. After 48 hrs treatment, the spent media was removed from the Huh-7 cells and placed on ice (for immediate use) or at −80° C. (for future use) with the “LDH cytotoxicity assay Kit II” from Abcam. The cells remaining in the plate were rinsed with 100 μL PBS.
Then 85 μL of cell lysis solution was added to each well and incubated for 5-10 minutes at room temperature, to allow for complete cell lysis and detachment. mRNA was then prepared using the “mRNA Catcher PLUS plate” from Life Technologies, according to the protocol supplied. After the last wash, as much wash buffer as possible was aspirated without allowing the wells to dry. Elution Buffer (E3, 80 μL) was then added to each well. mRNA was then eluted by incubating the mRNA Catcher PLUS plate with Elution Buffer for 5 minutes at 68° C., and then 1 minute at 4° C. Catcher plates with mRNA eluted were kept on ice for use or stored at −80° C.
The eluted mRNA isolated was then used in a one-step real-time PCR reaction, using components of the Ultra Sense Kit together with Life Technologies primer-probe mixes. Real-time PCR data was analyzed, using the Ct values, to determine the fold induction of each unknown sample, relative to the control (that is, relative to the control for each independent DMSO concentration).
Compounds with an EC170 value less than 30 μM are deemed to be active.

SMILES | FRET activity (IC50 < 30 μM) (Brd4 bromodomain 1) | c-myc activity (IC50 < 30 μM) (c-myc) | cell proliferation activity (IC50 < 30 μM) (Human AML MV-4-11 cells) | IL-6 activity (IC50 < 30 μM) (hIL-6 mRNA) | melting point | ApoA-1 Activity (EC170 < 30 μM) (hApoA-1 mRNA)
COc1cc(OC)c2c(=O)[nH]c(-c3ccc(OCCNC(C)C)c(-c4ccc(C(=O)N(C)C)cc4C)n3)nc2c1 [Example 4, 4-(6-(5,7-dimethoxy-4-oxo-3,4-dihydroquinazolin-2-yl)-3-(2-(isopropylamino)ethoxy)pyridin-2-yl)-N,N,3-trimethylbenzamide] | Active | Active | Active | Active |  | Active
COc1cc(OC)c2c(=O)[nH]c(-c3ccc(OCCO)c(-c4ccc(C(=O)N(C)C)cc4Cl)n3)nc2c1 [Example 5, 3-Chloro-4-(6-(5,7-dimethoxy-4-oxo-3,4-dihydroquinazolin-2-yl)-3-(2-hydroxyethoxy)pyridin-2-yl)-N,N-dimethylbenzamide] | Active | Active | Active | Active |  | Active
COc1cc(OC)c2c(=O)[nH]c(-c3ccc(OCCNC(C)C)c(-c4ccc(C(=O)N(C)C)cc4Cl)n3)nc2c1 [Example 6, 3-Chloro-4-(6-(5,7-dimethoxy-4-oxo-3,4-dihydroquinazolin-2-yl)-3-(2-(isopropylamino)ethoxy)pyridin-2-yl)-N,N-dimethylbenzamide] | Active | Active | Active | Active |  | Active
COc1cc(F)cc2nc(-c3ccc(OC4CN(C)C4)c(-c4ccc([S+](C)[O-])cc4)c3)[nH]c(=O)c12 (stereo not drawn) [Example 15, 7-Fluoro-5-methoxy-2-(6-((1-methylazetidin-3-yl)oxy)-4′-(methylsulfinyl)-[1,1′-biphenyl]-3-yl)quinazolin-4(3H)-one] | Active | Active | Not Active | Active |  | Active
COc1cc(OC)c2c(=O)[nH]c(-c3ccc(OCCNC(C)C)c(-c4ccc([S+](C)[O-])cc4)c3)nc2c1 (stereo not drawn) [Example 17, 2-(6-(2-(Isopropylamino)ethoxy)-4′-(methylsulfinyl)biphenyl-3-yl)-5,7-dimethoxyquinazolin-4(3H)-one] | Active | Active | Active | Active |  | Active
COc1cc(OC)c2c(=O)[nH]c(-c3ccc(OC4CNC4)c(-c4ccc(C#N)cc4)c3)nc2c1 [Example 18, 2′-(Azetidin-3-yloxy)-5′-(5,7-dimethoxy-4-oxo-3,4-dihydroquinazolin-2-yl)-[1,1′-biphenyl]-4-carbonitrile] | Active | Active | Not Active | Active |  | Active
COc1cc(OC)c2c(=O)[nH]c(-c3ccc(OC4CN(C)C4)c(-c4ccc(C#N)cc4)c3)nc2c1 [Example 19, 5′-(5,7-Dimethoxy-4-oxo-3,4-dihydroquinazolin-2-yl)-2′-((1-methylazetidin-3-yl)oxy)-[1,1′-biphenyl]-4-carbonitrile] | Active | Active | Not Active | Active |  | Active
COc1cc(OC)c2c(=O)[nH]c(-c3cccc(-c4ccc(C(=O)N(C)C)cc4)n3)nc2c1 [Example 20, 4-(6-(5,7-Dimethoxy-4-oxo-3,4-dihydroquinazolin-2-yl)pyridin-2-yl)-N,N-dimethylbenzamide] | Active | Active | Not Active | Active | 217 to 219 °C | Active
COc1cc(OC)c2c(=O)[nH]c(-c3ccc(OCCO)c(-c4ccc(C(=O)N(C)C)cc4)n3)nc2c1 [Example 23, 4-(6-(5,7-Dimethoxy-4-oxo-3,4-dihydroquinazolin-2-yl)-3-(2-hydroxyethoxy)pyridin-2-yl)-N,N-dimethylbenzamide] | Active | Active | Not Active | Active |  | Active

Continued, in another order:

FRET activity (IC50 < 30 μM) (Brd4 bromodomain 1) | c-myc activity (IC50 < 30 μM) (c-myc) | cell proliferation activity (IC50 < 30 μM) (Human AML MV-4-11 cells) | IL-6 activity (IC50 < 30 μM) (hIL-6 mRNA) | melting point | SMILES | ApoA-1 Activity (EC170 < 30 μM) (hApoA-1 mRNA)
Active | Not Active | Not Active | Active | > 300 °C | COc1cc(OC)c2c(=O)[nH]c(-c3ccc(OCCO)c(-c4ccc(S(C)(=O)=O)cc4)n3)nc2c1 [Example 24, 2-(5-(2-Hydroxyethoxy)-6-(4-(methylsulfonyl)phenyl)pyridin-2-yl)-5,7-dimethoxyquinazolin-4(3H)-one] | Active
Active | Active | Active | Active |  | COc1cc(OC)c2c(=O)[nH]c(-c3ccc(OCCO)c(-c4ccc(S(C)(=O)=O)cc4C)n3)nc2c1 [Example 39, 2-(5-(2-Hydroxyethoxy)-6-(2-methyl-4-(methylsulfonyl)phenyl)pyridin-2-yl)-5,7-dimethoxyquinazolin-4(3H)-one] | Active
Active | Active | Active | Active |  | CCS(=O)(=O)c1ccc(-c2nc(-c3nc4cc(OC)cc(OC)c4c(=O)[nH]3)ccc2OCCN2CCCC2)cc1 [Example 42, 2-(6-(4-(Ethylsulfonyl)phenyl)-5-(2-(pyrrolidin-1-yl)ethoxy)pyridin-2-yl)-5,7-dimethoxyquinazolin-4(3H)-one] | Not Active
Active | Active | Active | Active |  | CCS(=O)(=O)c1ccc(-c2nc(-c3nc4cc(OC)cc(OC)c4c(=O)[nH]3)ccc2OCCN2CCOCC2)cc1 [Example 43, 2-(6-(4-(Ethylsulfonyl)phenyl)-5-(2-morpholinoethoxy)pyridin-2-yl)-5,7-dimethoxyquinazolin-4(3H)-one] | Active
Active | Active | Active | Active |  | COc1cc(OC)c2c(=O)[nH]c(-c3ccc(OCCNC(C)C)c(-c4ccc(S(C)(=O)=O)cc4)c3)nc2c1 [Example 44, 2-(6-(2-(Isopropylamino)ethoxy)-4′-(methylsulfonyl)-[1,1′-biphenyl]-3-yl)-5,7-dimethoxyquinazolin-4(3H)-one] | Active
